“And” between values parts separate entries of the source, which are not always exact repeats. Equal values may be shown once. Inconclusive results and toxic doses are left out.
Test system: CD2F1 mice, L1210 leukemia ip, survival T/C
Test: NCI In Vivo Anticancer Drug Screen. Data for tumor model L1210 Leukemia (intraperitoneal) in CD2F1 (CDF1) mice
Conditions: higher = longer survival
Summary of the method: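 Tumor-bearing mice (transplanted tumor) were split into treated and vehicle control groups, and the measured endpoint of each treated group was divided by that of its vehicle controls.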

[1] = endpoint: mean survival time, dose: 100.0 mg/kg/injection, schedule: Q04DX003 (ip), vehicle: saline with Tween-80
[2] = endpoint: mean survival time, dose: 200.0 mg/kg/injection, schedule: Q04DX003 (ip), vehicle: saline with Tween-80
[3] = endpoint: mean survival time, dose: 400.0 mg/kg/injection, schedule: Q04DX003 (ip), vehicle: saline with Tween-80
[4] = endpoint: mean survival time, dose: 50.0 mg/kg/injection, schedule: Q01DX009 (ip), vehicle: Klucel (hydroxypropylcellulose) (HPC)
[5] = endpoint: mean survival time, dose: 100.0 mg/kg/injection, schedule: Q01DX009 (ip), vehicle: Klucel (hydroxypropylcellulose) (HPC)
[6] = endpoint: mean survival time, dose: 200.0 mg/kg/injection, schedule: Q01DX009 (ip), vehicle: Klucel (hydroxypropylcellulose) (HPC)
[7] = endpoint: mean survival time, dose: 100.0 mg/kg/injection, schedule: Q01DX001 (ip), vehicle: saline with Tween-80
[8] = endpoint: mean survival time, dose: 100.0 mg/kg/injection, schedule: Q01DX009 (ip), vehicle: saline with Tween-80
[9] = endpoint: mean survival time, dose: 200.0 mg/kg/injection, schedule: Q01DX009 (ip), vehicle: saline with Tween-80
[10] = endpoint: mean survival time, dose: 200.0 mg/kg/injection, schedule: Q04DX003 (ip), vehicle: Klucel (hydroxypropylcellulose) (HPC)
[11] = endpoint: mean survival time, dose: 400.0 mg/kg/injection, schedule: Q04DX003 (ip), vehicle: Klucel (hydroxypropylcellulose) (HPC)
[12] = endpoint: mean survival time, dose: 25.0 mg/kg/injection, schedule: Q04DX002 (ip), vehicle: saline with Tween-80
[13] = endpoint: mean survival time, dose: 50.0 mg/kg/injection, schedule: Q01DX009 (ip), vehicle: saline with Tween-80
[14] = endpoint: mean survival time, dose: 400.0 mg/kg/injection, schedule: Q01DX009 (ip), vehicle: saline with Tween-80
[15] = endpoint: mean survival time, dose: 100.0 mg/kg/injection, schedule: Q04DX002 (ip), vehicle: saline with Tween-80
[16] = endpoint: mean survival time, dose: 50.0 mg/kg/injection, schedule: Q01DX009 (ip), vehicle: saline
[17] = endpoint: mean survival time, dose: 100.0 mg/kg/injection, schedule: Q01DX009 (ip), vehicle: saline
[18] = endpoint: mean survival time, dose: 200.0 mg/kg/injection, schedule: Q01DX009 (ip), vehicle: saline
[19] = endpoint: mean survival time, dose: 400.0 mg/kg/injection, schedule: Q01DX009 (ip), vehicle: saline
[20] = endpoint: mean survival time, dose: 200.0 mg/kg/injection, schedule: Q04DX002 (ip), vehicle: saline with Tween-80
[21] = endpoint: mean survival time, dose: 400.0 mg/kg/injection, schedule: Q04DX002 (ip), vehicle: saline with Tween-80

Cc1cccc(NNC(=S)Nc2ccccc2)c1
T/C (endpoint: mean survival time, dose: 100.0 mg/kg/injection, schedule: Q04DX003 (ip), vehicle: saline): 94 % of control | T/C (endpoint: mean survival time, dose: 200.0 mg/kg/injection, schedule: Q04DX003 (ip), vehicle: saline): 100 % of control | T/C (endpoint: mean survival time, dose: 400.0 mg/kg/injection, schedule: Q04DX003 (ip), vehicle: saline): 100 % of control

CCOC(=O)C(CCCCC(NC(C)=O)(C(=O)OCC)C(=O)OCC)(NC(C)=O)C(=O)OCC
T/C [1]: 98 % of control | T/C [2]: 92 % of control | T/C [3]: 92 % of control

CC1(C)CC(C)(OC(=O)c2ccccc2)N=N1 (stereo unspecified)
T/C (endpoint: mean survival time, dose: 25.0 mg/kg/injection, schedule: Q01DX009 (ip), vehicle: Klucel (hydroxypropylcellulose) (HPC)): 97 % of control | T/C [4]: 94 % of control | T/C [5]: 101 % of control | T/C [6]: 100 % of control | T/C (endpoint: mean survival time, dose: 400.0 mg/kg/injection, schedule: Q01DX009 (ip), vehicle: Klucel (hydroxypropylcellulose) (HPC)): 101 % of control

NC(=O)COc1ccc(Cl)cc1Cl
T/C [7]: 98 % of control | T/C [8]: 94 % of control | T/C (endpoint: mean survival time, dose: 200.0 mg/kg/injection, schedule: Q01DX001 (ip), vehicle: saline with Tween-80): 94 % of control | T/C [9]: 96 % of control | T/C (endpoint: mean survival time, dose: 400.0 mg/kg/injection, schedule: Q01DX001 (ip), vehicle: saline with Tween-80): 94 % of control

[Br][Sn]([Br])([c]1cccc2ccccc12)[c]1cccc2ccccc12
T/C [1]: 105 % of control | T/C [2]: 109 % of control | T/C [3]: 97 % of control

O=C/C=C/C=O
T/C (endpoint: mean survival time, dose: 3.13 mg/kg/injection, schedule: Q01DX001 (ip), vehicle: suspension in saline): 98 % of control | T/C (endpoint: mean survival time, dose: 6.25 mg/kg/injection, schedule: Q01DX001 (ip), vehicle: saline with Tween-80): 106 % of control | T/C (endpoint: mean survival time, dose: 6.25 mg/kg/injection, schedule: Q01DX001 (ip), vehicle: suspension in saline): 104 % of control | T/C (endpoint: mean survival time, dose: 12.5 mg/kg/injection, schedule: Q01DX001 (ip), vehicle: saline with Tween-80): 122 % of control | T/C (endpoint: mean survival time, dose: 12.5 mg/kg/injection, schedule: Q01DX001 (ip), vehicle: suspension in saline): 101 % of control | T/C (endpoint: mean survival time, dose: 25.0 mg/kg/injection, schedule: Q01DX001 (ip), vehicle: suspension in saline): 101 % of control

NC(=O)c1[nH]cnc1/N=N/N(CCCl)Cc1ccccc1
T/C (endpoint: mean survival time, dose: 66.0 mg/kg/injection, schedule: Q01DX009 (ip), vehicle: Klucel (hydroxypropylcellulose) (HPC)): 180 % of control | T/C [5]: 264 % of control | T/C (endpoint: mean survival time, dose: 150.0 mg/kg/injection, schedule: Q01DX009 (ip), vehicle: Klucel (hydroxypropylcellulose) (HPC)): 264 % of control | T/C [10]: 227 % of control | T/C [11]: 268 % of control

CC12C3C4C5C3C1(C)C(C42)C51OCCO1 (stereo unspecified)
T/C (endpoint: mean survival time, dose: 12.5 mg/kg/injection, schedule: Q04DX002 (ip), vehicle: saline with Tween-80): 100 % of control | T/C [12]: 100 % of control

Nc1cccc(=O)[nH]1
T/C (endpoint: mean survival time, dose: 12.5 mg/kg/injection, schedule: Q01DX009 (ip), vehicle: suspension in saline): 96 % of control | T/C (endpoint: mean survival time, dose: 25.0 mg/kg/injection, schedule: Q01DX009 (ip), vehicle: suspension in saline): 96 % of control and 104 % of control | T/C (endpoint: mean survival time, dose: 50.0 mg/kg/injection, schedule: Q01DX009 (ip), vehicle: suspension in saline): 95 % of control and 96 % of control | T/C (endpoint: mean survival time, dose: 100.0 mg/kg/injection, schedule: Q01DX009 (ip), vehicle: suspension in saline): 90 % of control and 96 % of control | T/C (endpoint: mean survival time, dose: 200.0 mg/kg/injection, schedule: Q01DX009 (ip), vehicle: suspension in saline): 102 % of control and 107 % of control | T/C (endpoint: mean survival time, dose: 400.0 mg/kg/injection, schedule: Q01DX009 (ip), vehicle: suspension in saline): 104 % of control

CCCCCCCCC[n+]1ccc(C(N)=O)cc1
T/C (endpoint: mean survival time, dose: 25.0 mg/kg/injection, schedule: Q01DX009 (ip), vehicle: saline with Tween-80): 103 % of control | T/C [13]: 95 % of control | T/C [8]: 95 % of control

CCCCCCCCCCCC#N
T/C (endpoint: mean survival time, dose: 100.0 mg/kg/injection, schedule: Q04DX003 (ip), vehicle: Klucel (hydroxypropylcellulose) (HPC)): 102 % of control | T/C [10]: 97 % of control | T/C [11]: 104 % of control

CCOc1ccccc1NC(=O)NCC(=O)NNC(=O)Nc1ccc(Cl)c([N+](=O)[O-])c1
T/C [8]: 92 % of control | T/C [9]: 92 % of control | T/C [14]: 97 % of control

Cc1c[nH]c(=O)c[n+]1[O-]
T/C [8]: 100 % of control | T/C [9]: 100 % of control | T/C [14]: 97 % of control

COc1ccccc1NC1=NCCO1
T/C [12]: 105 % of control | T/C (endpoint: mean survival time, dose: 50.0 mg/kg/injection, schedule: Q04DX002 (ip), vehicle: saline with Tween-80): 97 % of control | T/C [7]: 90 % of control | T/C [15]: 94 % of control

COC(=O)C(=[N+]=[N-])C(=O)OC
T/C [8]: 93 % of control | T/C [1]: 101 % of control | T/C [9]: 93 % of control | T/C [2]: 101 % of control | T/C [14]: 91 % of control | T/C [3]: 98 % of control

Cc1ccc(C2=C(O)C(=O)C(c3ccc(C)cc3)C2=O)cc1 (stereo unspecified)
T/C [1]: 93 % of control | T/C [2]: 96 % of control

C=CCOCC(O)CNc1ccccc1 (stereo unspecified)
T/C [13]: 101 % of control | T/C [8]: 101 % of control | T/C [9]: 96 % of control

O=c1nc(NC2CCCCCCCCCCC2)ccn1C1OC(CO)C(O)C1O (stereo unspecified)
T/C (endpoint: median survival time, dose: 12.5 mg/kg/injection, schedule: Q01DX005 (ip), vehicle: distilled water + Tween-80): 101 % of control | T/C (endpoint: median survival time, dose: 25.0 mg/kg/injection, schedule: Q01DX005 (ip), vehicle: distilled water + Tween-80): 102 % of control | T/C (endpoint: median survival time, dose: 50.0 mg/kg/injection, schedule: Q01DX005 (ip), vehicle: distilled water + Tween-80): 105 % of control | T/C (endpoint: median survival time, dose: 100.0 mg/kg/injection, schedule: Q01DX005 (ip), vehicle: distilled water + Tween-80): 93 % of control | T/C (endpoint: median survival time, dose: 200.0 mg/kg/injection, schedule: Q01DX005 (ip), vehicle: distilled water + Tween-80): 86 % of control

O=C1c2cccc3cccc(c23)C(=O)N1Cc1ccccc1
T/C [1]: 98 % of control | T/C [2]: 87 % of control | T/C [3]: 91 % of control

CC(=O)C1CCC2(C)C(CCC3C4CCC(C(C)=O)C4(C)CC(=O)C32)C1 (stereo unspecified)
T/C [4]: 96 % of control | T/C [5]: 100 % of control | T/C [6]: 93 % of control

CCOC(=O)c1ccnc2ccc(O)cc12
T/C [8]: 104 % of control | T/C [9]: 93 % of control | T/C [14]: 95 % of control

O=C(OCc1ccccc1)C(Cl)(Cl)Cl
T/C [1]: 107 % of control | T/C [2]: 103 % of control | T/C [3]: 96 % of control

O=C(OC(c1ccccc1)c1ccccc1)C(CSC(c1ccccc1)(c1ccccc1)c1ccccc1)NC(c1ccccc1)(c1ccccc1)c1ccccc1 (stereo unspecified)
T/C [16]: 96 % of control | T/C [17]: 101 % of control | T/C [18]: 102 % of control | T/C [19]: 98 % of control

CC/C=C(\CC)CO
T/C [13]: 100 % of control | T/C [8]: 95 % of control | T/C [9]: 100 % of control

N[C@@H](Cc1ccc(O)c(O)c1)C(=O)O
T/C (endpoint: mean survival time, dose: 25.0 mg/kg/injection, schedule: Q01DX009 (ip), vehicle: saline): 98 % of control | T/C [16]: 97 % of control | T/C [17]: 96 % of control | T/C [15]: 103 % of control | T/C [18]: 103 % of control | T/C [20]: 95 % of control | T/C [19]: 108 % of control | T/C [21]: 98 % of control | T/C (endpoint: mean survival time, dose: 800.0 mg/kg/injection, schedule: Q01DX009 (ip), vehicle: saline): 119 % of control

CNC(=S)/N=c1/scc(C)n1C
T/C [15]: 91 % of control | T/C [20]: 91 % of control | T/C [21]: 111 % of control

Reference: PubChem BioAssay AID256 (DTP/NCI, 2004)
